Data published in patent US20040198605A1, “Growth promoter for gramineous plants” (priority 2001, published 2004).
Where “and” joins values, the source holds several entries; their conditions need not be identical. Identical values can stand only once.

How the values were obtained:
[1] = system: Lawn sods (bent grass; breed name: BENCROSS); assay: Soil culture of lawns, leaf surface sprinkling test; type: in vivo; settings: for Weight of Cut Stem/Leaf after Dried (mean of three pots) / Weight of Cut Stem/Leaf after Dried (individual pots): cut on 77th day; for Weight of Cut Stem/Leaf after Dried (individual pots): three pots
Method: Lawn sods having a diameter of 4 cm and a thickness of 3 cm (bent grass; breed name: BENCROSS) were each planted in 1/50 m^2 Wagner pots, and a leaf surface sprinkling test was carried out on a group of three pots. To the soil of each pot, a chemical fertilizer (12-8-10) was add-mixed as the initial fertilizer in an amount of 1 g/pot. Serine was diluted with water to the concentrations shown in the following Table 1 and sprinkled by means of a sprinkler on the 10th day and 24th day after planting. On the 77th day after planting, the plant parts exposed on the ground were cut, and the weight thereof after dried was measured.

[2] = system: Seedlings of lawns (western lawns; Evergreen Lawn Grass); assay: Hydroponics (water culture) of lawns, serine sprinkled over the surfaces of leaves; type: in vivo; settings: 26th day
Method: Seedlings of lawns (western lawns; Evergreen Lawn Grass) were raised and were divided into two groups, A and B, each consisting of 60 seedlings so as to carry out water culture. A given amount of a liquid fertilizer was added to a water culture solution, to which inosine was then added to a concentration of 0.2 ppm. The testing period started on Oct. 6, 1999 and ended on Nov. 1, 1999 (26 days). Group A was set as a control area. As for Group B, 5 ml of a solution so prepared as to have a serine concentration of 20 ppm was sprinkled over the surfaces of leaves every day over a period of 15 days. On the 26th day, the weight of 5 average grown seedlings selected from each group was measured.

[3] = 5 ml of serine 20 ppm sprinkled on leaves daily for 15 days, inosine 0.2 ppm in water culture solution, 5 average seedlings

## N[C@@H](CO)C(=O)O [Serine, serine]
[1]; serine 18.3 ppm sprinkled on 10th and 24th day
  Weight of Cut Stem/Leaf after Dried (mean of three pots): 2.27 ± 0.12 g/pot
[1]; serine 18.3 ppm sprinkled on leaf surfaces on 10th and 24th day after planting
  Weight of Cut Stem/Leaf after Dried (individual pots): 2.17 g/pot and 2.43 g/pot and 2.20 g/pot
[1]; serine 18.3 ppm, 77th day, * statistically significant difference
  Percentage (dried weight, Control = 100): 185*
[1]; serine 183 ppm sprinkled on 10th and 24th day
  Weight of Cut Stem/Leaf after Dried (mean of three pots): 1.27 ± 0.16 g/pot
[1]; serine 183 ppm sprinkled on leaf surfaces on 10th and 24th day after planting
  Weight of Cut Stem/Leaf after Dried (individual pots): 1.26 g/pot and 1.47 g/pot and 1.08 g/pot
[1]; serine 183 ppm, 77th day
  Percentage (dried weight, Control = 100): 104
[1]; serine-treated areas, particularly 18.3 ppm-treated areas, 77th day
  Growth (in words): good growth was observed
[2]; [3]
  Average Leaf Length: 22 cm
  Root Length: 4.1 cm
[2]; serine-treated area
  Root length, leaf length and total weight in the raw state (in words): good
[2]; total of above-ground portions and roots of 5 undried lawn plants, serine 20 ppm on leaves daily for 15 days, inosine 0.2 ppm in water culture
  Total Weight in Raw State: 0.35 g
